# Where no end group is shown, it is not given here. The star is where a group is joined. Biotin = O=C1N[C@H]2[C@H](CS[C@H]2CCCCC(=O)*)N1
# How the values were obtained:
# [1] = test system: murine matriptase (primary keratinocytes); conditions: representative of 2 independent experiments; for labeling of matriptase in matriptase-deficient (KO) murine keratinocytes: lysates or pull downs (figure 6 lanes 4-6 and 10-12)
# matriptase SPD = test: Chromogenic assay: inhibition of matriptase SPD cleavage of S2288; conditions: representative of 3 independent experiments
# matriptase-HAI-1 complex = test: Reaction with / effect on matriptase-HAI-1 complex in Caco-2 cells (pH 6.0-induced)
Compound,labeling of matriptase in matriptase-deficient (KO) murine keratinocytes [1],"inhibition of peptidolytic activity of matriptase SPD after pre-incubation of inhibitor (matriptase SPD; 5 nM inhibitor pre-incubated 60 min at 37°C, 0.2 nM SPD, Hepes pH 7.4, S2288 300 µM, 405 nm)","inhibition of peptidolytic activity of matriptase SPD (matriptase SPD; 5 nM inhibitor, no pre-incubation (0 min), 0.2 nM SPD, Hepes pH 7.4, 10 min at 37°C, S2288 300 µM, 405 nm)","inhibition of matriptase SPD after pre-incubation of inhibitor (matriptase SPD; 50 µM inhibitor pre-incubated in aqueous solution 180 min at 37°C, 0.2 nM SPD, Hepes pH 7.4, 10 min at 37°C, S2288 300 µM, 405 nm)","inhibition of matriptase SPD cleavage of chromogenic substrate at pH 6.0 (matriptase SPD; 50 µM inhibitor, 20 mM citric acid pH 6.0, 140 mM NaCl, 0.1% BSA, 10 min at 37°C, S2288 300 µM)","labeling of matriptase after pH 6.0 pre-treatment (matriptase-HAI-1 complex formed) (matriptase-HAI-1 complex; 50 µM, 30 min at 37°C at pH 7.4 after 30 min pre-treatment at pH 6.0 (figure 4 lane 9))","labeling of matriptase-HAI-1 complex (matriptase-HAI-1 complex; Caco-2, 50 µM, 30 min at 37°C, conclusion from pH 6.0 pre-treatment)",dissociation of matriptase-HAI-1 complex (matriptase-HAI-1 complex; under the conditions used in the study),"labeling of matriptase on WT murine keratinocytes by control peptide ([1]; 50 µM control peptide, WT keratinocytes (figure 6 lane 3))"
biotin-Arg-Gln-Arg-Arg-chloromethyl ketone,No matriptase could be detected in lysates or pull downs,fully inhibiting the peptidolytic activity,fully inhibiting the peptidolytic activity,still sufficient to efficiently inhibit the activity,no cleavage of the substrate was observed,but not when the cells had been exposed to pH 6.0 for 30 min,matriptase-HAI-1 complex is not labeled,not able to dissociate the matriptase-HAI-1 complex,
Biotin-RQRR [biotin-RQRR],No matriptase could be detected in lysates or pull downs,,,,,,,,No matriptase was detected
O=C(CCCC[C@@H]1SC[C@@H]2NC(=O)N[C@@H]21)NCCSSCCC(=O)ON1C(=O)CC(S(=O)(=O)[O-])C1=O.[Na+] (some centres unmarked) [S-NHS-SS-biotin],No matriptase could be detected in lysates or pull downs,,,,,,,,

# Source: PMC3799725, “Detection of Active Matriptase Using a Biotinylated Chloromethyl Ketone Peptide” (PLoS ONE, 2013)
